The values that follow come from patent US6169104A, “Di-aryl ethers and their derivatives as anti-cancer agents” (Large Scale Biology Corporation, priority 1998, dated 2001).

Common to all, as to type: cell-based
One series deals with MCF-7 (breast). The experiment in a line: In vitro cytotoxicity screen, alamar Blue assay. Particulars: Homo sapiens, MCF7, 168 h, 7 days post exposure. The procedure: (§1) Human tumor cell lines were exposed continuously to varying concentrations of test agents, i.e., BTO-956, BTO-964, BTO966 and BTO-967) and the viability of the cells was measured at set time points (1, 3, and 7 days) using the alamar Blue™ assay. […] This fluorescence can be measured with a fluorimeter, whereby the signal is directly proportional to cell number.
(§2) Various tumor cell lines of human origin representing a wide diversity of cancer pheno- and genotypes were exposed in vitro to the agents to evaluate the drug's effective range. Tumor lines screened included MDA MB 231 (breast), MCF-7 (breast), MDA MB 468 (breast), Siha (squamous cell carcinoma), A549 (non-small cell lung), HL-60 (leukemia), Ovcar-3 (ovarian). The test agents were prepared in serial dilutions from 10 mM stock solutions in DMSO yielding a 66-fold dose range of 20 μM, 10 μM, 3 μM, 1 μM and 0.3 μM concentrations. In each case, cells were maintained at 37° C. under 5 percent CO2 in air. All cell lines were incubated in Dulbecco's modified Eagle medium (DMEM) supplemented with 10% heat-inactivated fetal bovine serum and graded doses of BTO-956, 964, 966, or 967. 5-Fluorouracil (5-FU) was included as a positive control in experiments with two of the cell lines. The experiments were conducted in 96-well tissue culture plates (Falcon) with an initial seeding density of 1000 cells per well in 250 μl aliquots. The next day, medium was replaced with 100 μl of drug dilutions in triplicate.
(§3) After a 7 day exposure to the various agents, the alamarBlue dye was diluted to 20% in DMEM, and 100 μl was added to each well. The cells were incubated for 8 hours until obvious color changes indicated sufficient amounts of reduced dye for quantitation. Relative cell number was evaluated by florimetry on a Millipore 2300 CytoFluor fluorescence measurement system. Measurements were taken directly from 96-well plates after excitation at 560 nm with concomitant emission at 590 nm.
For orientation: Alamar Blue is a resazurin reagent that responds to reducing activity.

For a further series, the system named is MDA MB 231 (breast). The experiment in a line: In vitro cytotoxicity screen, alamar Blue assay. As to conditions: Homo sapiens, 168 h; MDA MB 231; 7 days post exposure; read-out: IC50. The procedure:
as §1, §2, §3

A further series relates to Ovcar-3 (ovarian). The series is described as follows: In vitro cytotoxicity screen, alamar Blue assay. Particulars: Homo sapiens, 168 h, 7 days post exposure. The procedure: as §1, §2, §3
Series [1] relates to A549 (non-small cell lung). The series is described as follows: In vitro cytotoxicity screen, alamar Blue assay. As to conditions: Homo sapiens, 168 h; A549; 7 days post exposure; read-out: IC50. The procedure:
as §1, §2, §3

For series [2], the system named is Siha (squamous cell carcinoma). The series is described as follows: In vitro cytotoxicity screen, alamar Blue assay. As to conditions: Homo sapiens, 168 h, 7 days post exposure. The procedure: as §1, §2, §3
For a further series, the system named is MDA MB 468 (breast). The experiment in a line: In vitro cytotoxicity screen, alamar Blue assay. As to conditions: Homo sapiens, 168 h, 7 days post exposure. The procedure: as §1, §2, §3
Series [3] deals with Human leukemia (HL60) cells. The experiment in a line: In vitro metabolism in human leukemia cells with and without rat liver S9. As to conditions: for effect of metabolism by S9 on activity: 4 hr incubation with vs without rat liver S9, cells counted 3 days later (FIG. 2). The procedure: FIG. 2 illustrates the in vitro metabolism of BTO-956, 964, 966, and 967 in human leukemia cells. In this experiments, human leukemia cells (HL60) were incubated for 4 hours in the presence of BTO-956, BTO-964, BTO-966 or BTO-967, with (closed symbols) and without (open symbols) rat liver microsome fraction S9. Following the 4 hr exposure to drug and S9, the cells were rinsed and replated at a density of 2×10^5 cells per ml, and counted 3 days later.
To test for either of these possibilities, the compounds, i.e., BTO-956, BTO-964, BTO-966 and BTO-967, were incubated with a microsomal enzyme fraction, referred to as S9.
Human leukemia (HL60) cells were used to evaluate drug metabolism. Exposure to the test article was performed in the presence and absence of S9, prepared from the liver of adult male rats given a single intraperitoneal injection of Arachlor 1254 (500 mg/kg). The S9 consisted of the 9000×G supernatant of liver homogenized in 0.25 M sucrose-100 mM phosphate buffer (pH 7.4) (Molecular Toxicology, Inc.). Cofactors were 1 mM NADP and 5 mM sodium isocitrate. On the day of exposure, cultures of cells, with or without the metabolism mixture, were incubated for 4 hours in RPMI containing 5% FBS and graded doses of BTO956, 964, 966, or 967. The test agents were prepared in serial dilutions from 10 mM stock solutions in DMSO yielding a dose range 100 μM, 50 μM, 25 μM, 10 μM and 5 μM concentrations and a final DMSO concentration of 1%. In each case, cells were maintained at 37° C. under 5 percent CO2 in air. The experiments were conducted in 6-well tissue culture plates (Falcon) with an initial seeding density of 2×10^6 cells per well in 2 ml aliquots. The test compounds were added immediately to the medium in duplicate cultures. Treatment solution was removed by a series of low-speed centrifugations to pellet the cells, followed by removal of the supernatant and resuspension of cells in fresh RPMI containing 10% FBS.

Bounds are passed on as bounds.

Regarding `COC(=S)c1cc(I)c(Oc2ccc(OC)cc2)c(I)c1` [BTO-967, methyl 3,5-diiodo-4-(4'-methoxyphenoxy)thiobenzoate], the concentration for half-maximal inhibition (IC50) in the series with MCF-7 (breast) was 1 µM; in the series on MDA MB 231 (breast) it was 2 µM; in the series with Ovcar-3 (ovarian) it was 0.8 µM; in series [1], 5.5 µM; in series [2], 20 µM; with MDA MB 468 (breast) it was 1.5 µM. Further, in series [3], the “effect of metabolism by S9 on activity” value is “activated to more cytotoxic products”.

For `COc1ccc(Oc2c(I)cc(C=O)cc2I)cc1` [BTO-964, 3,5-Diiodo-4-(4'-methoxyphenoxy)benzadehyde], the IC50 is 2.4 µM in the series with MCF-7 (breast); 2 µM in the series on MDA MB 231 (breast); 1.8 µM with Ovcar-3 (ovarian); above 20 µM in series [1]; 17 µM in series [2]; 4 µM in the series with MDA MB 468 (breast). Moreover, the “toxicity to HL60 cells” value in series [3] (4 hr exposure (FIG. 2)) is “more toxic to HL60 cells than is BTO-956”. For the same compound, in series [3], the “effect of metabolism by S9 on activity” value was “more resistant to metabolic degradation”.

Broadly, the IC50 is the concentration that gives 50% inhibition.
